This is an account of results in patent US20240335544A1, “M6PR CELL SURFACE RECEPTOR BINDING COMPOUNDS AND CONJUGATES” (LYCIA THERAPEUTICS, INC., priority 2021, published 2024).

SMILES strings stand for the structures. Entries after “also recorded” stand apart in the source; their conditions may differ. Like-named read-outs stand apart in the source and are kept apart here.

One experiment concerns the target CI-M6PR (Homo sapiens, UniProt P11717). In words: Human CI-M6PR binding assay (ELISA). Also noted: purchased R&D 6418-GR-050. Here is the method: Nunc black solid bottom MaxiSorp plates were allowed to incubate overnight at 4° C. coated with 1 μg/mL of recombinant human CI-M6PR protein (R&D, 6418-GR-050) in 50 μL PBS. The next day, coating was decanted and plates were washed 3× with PBS. Wells were blocked with 350 μL of 3% BSA-PBS for 1 hour at room temperature. […] 50 μL of diluted conjugates were added to the plate and allowed to incubate at room temperature for 2 hours. After incubation, solutions in plate were decanted and washed with 350 μL of 0.05% PBS-Tween20 three times, drying the plate each wash on a clean paper towel. 50 μL of peroxidase AffiniPure Mouse Anti-Human IgG (Jackson Immuno, 209-035-088) diluted in 3% BSA-PBS to […] was added to the plate and allowed to incubate for 1 hour at room temperature in the dark. After incubation, solutions in plate were decanted and washed with 350 μL of 0.05% PBS-Tween20 3 times, drying the plate each wash on a clean paper towel. […] 50 μL of QuantaBlu solution was added to wells and allowed to incubate for 5-10 minutes at room temperature. After incubation, plates were read on a Perkin Elmer EnVision using photometric 340 and Umbelliferone 460 filter sets for excitation and emission, respectively. Data analysis and non-linear curve-fitting was performed using GraphPad Prism.
(In an ELISA, binding on a coated surface is turned into a signal by an enzyme label.)

The test system of a further experiment is Jurkat cells. In words: Uptake of IgE-Alexa488 target by omalizumab conjugates in Jurkat cells. It is filed as cell-based. The settings on record: for relative cellular uptake activity of IgE-Alexa488, omalizumab conjugates of Table 15A / relative cellular uptake activity of IgE-Alexa488, omalizumab conjugates of Table 15B: 1 hour; for relative cellular uptake activity of IgE-Alexa488, omalizumab conjugates of Table 15A: FIGS. 15-17; for relative cellular uptake activity of IgE-Alexa488, omalizumab conjugates of Table 15B: FIGS. 18-21. As for the experimental part:
The omalizumab conjugates of Example 142 were bound to IgE-Alexa488 (prepared according to Example 144), as follows: equal molar ratios of omalizumab (anti-IgE) conjugate and IgE-Alexa488 were added in tissue culture media for 30 minutes at room temperature. The resulting anti-IgE conjugate:IgE antibody-Alexa488 compositions were added to Jurkat cells (100 k cells/50 ul per well, n=2), and Alexa488 fluorescence levels in the cells were measured at 1 hour by flow cytometry. As the fluorescently labelled target (IgE antibody) accumulates in cells, the fluorescence presents a way to measure total intracellular uptake by cells over time.

Experiment [1] addresses T1, M6PR (Domains I-9, R&D Systems) (Homo sapiens, UniProt P11717).
T1 construct: with 100 nM M6PR (Domains I-9, R&D Systems) and 1 nM probe; purchased R&D Systems
In words: General M6PR binding assay (fluorescence polarization). As to conditions: Table 16F, unconjugated compounds, 100 nM M6PR, 1 nM probe, 2 hr incubation. As for the experimental part:
M6PR binding was measured in black 96-well plates using a fluorescence polarization assay. A fluorescent probe consisting of a reference M6Pn ligand linked to Cy5 was synthesized. Test compounds were resuspended in DMSO and 3-fold serial dilutions were made at 100× final concentrations. Binding reactions were conducted in 100 μl final volume in 20 mM HEPES (pH 7.5) 100 mM NaCl 0.015% Tween-20 1% DMSO with 100 nM M6PR (Domains I-9, R&D Systems) and 1 nM probe. Fluorescence polarization was measured using Xex=620 nm, λem=688 nm on an Envision plate reader (Perkin Elmer) after 2 hr incubation time. Dose responses were conducted in duplicate and normalized to the response with DMSO (high) and 1 μM reference compound (low) on each plate. IC50 values were determined by fitting to 4-parameter curves in GraphPad Prism.
(In general: In fluorescence polarisation assays a small probe gives low polarisation when free and higher when bound to something large.)

Setting [2] is: Table 16D, conjugate, m average loading DAR 2, read-out: EC50 in M6PR binding assay for conjugates of compounds of varying multivalency.

As usually defined, the EC50 is the concentration that produces a half-maximal response. By IC50 is commonly meant the concentration that inhibits the measured activity by half. Read a high IC50 as weaker potency in that assay.

Sequence of CI-M6PR (P11717 41-1365 limits assumed): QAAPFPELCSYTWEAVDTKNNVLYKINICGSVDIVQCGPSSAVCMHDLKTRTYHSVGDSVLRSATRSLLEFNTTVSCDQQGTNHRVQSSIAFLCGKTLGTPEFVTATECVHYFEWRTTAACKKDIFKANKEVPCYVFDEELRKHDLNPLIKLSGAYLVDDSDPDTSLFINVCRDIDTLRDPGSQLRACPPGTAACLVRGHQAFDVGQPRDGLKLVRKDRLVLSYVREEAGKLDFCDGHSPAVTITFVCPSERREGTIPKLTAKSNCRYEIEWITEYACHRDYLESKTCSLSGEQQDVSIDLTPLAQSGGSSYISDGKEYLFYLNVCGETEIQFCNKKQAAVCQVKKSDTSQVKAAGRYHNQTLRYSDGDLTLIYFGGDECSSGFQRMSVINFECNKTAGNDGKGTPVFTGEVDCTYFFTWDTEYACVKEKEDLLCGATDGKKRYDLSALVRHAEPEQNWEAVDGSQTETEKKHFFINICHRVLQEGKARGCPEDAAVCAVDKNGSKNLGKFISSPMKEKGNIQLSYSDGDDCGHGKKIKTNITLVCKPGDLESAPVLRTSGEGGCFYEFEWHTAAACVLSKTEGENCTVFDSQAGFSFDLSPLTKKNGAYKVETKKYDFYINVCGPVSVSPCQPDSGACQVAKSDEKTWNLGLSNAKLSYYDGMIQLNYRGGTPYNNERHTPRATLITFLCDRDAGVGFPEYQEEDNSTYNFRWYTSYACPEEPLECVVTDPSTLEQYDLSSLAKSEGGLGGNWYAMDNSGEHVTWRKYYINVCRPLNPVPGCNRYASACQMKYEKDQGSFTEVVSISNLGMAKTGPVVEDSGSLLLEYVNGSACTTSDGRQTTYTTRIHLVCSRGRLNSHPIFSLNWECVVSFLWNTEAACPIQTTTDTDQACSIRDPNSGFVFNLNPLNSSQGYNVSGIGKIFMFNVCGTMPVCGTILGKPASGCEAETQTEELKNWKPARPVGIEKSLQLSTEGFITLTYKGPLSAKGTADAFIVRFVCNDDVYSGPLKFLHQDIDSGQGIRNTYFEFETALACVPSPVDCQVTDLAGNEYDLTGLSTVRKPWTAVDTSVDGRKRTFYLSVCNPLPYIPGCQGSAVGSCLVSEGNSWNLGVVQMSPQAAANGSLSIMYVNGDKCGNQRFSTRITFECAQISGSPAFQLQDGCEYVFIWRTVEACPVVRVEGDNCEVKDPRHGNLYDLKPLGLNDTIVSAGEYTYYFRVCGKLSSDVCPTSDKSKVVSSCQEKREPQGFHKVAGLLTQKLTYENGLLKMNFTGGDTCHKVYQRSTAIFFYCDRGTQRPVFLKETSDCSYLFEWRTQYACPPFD
T1 sequence (P11717 41-1365 limits assumed): as above

Consider `Cc1cc(NC(=O)NCCCCc2cn(CCOCCOCCOCCOCCC(=O)Oc3c(F)c(F)c(F)c(F)c3F)nn2)ccc1O[C@H]1O[C@H](CCP(=O)(O)O)[C@@H](O)[C@H](O)[C@@H]1O` [545 (I-87)], for which the concentration for a half-maximal effect (EC50) at CI-M6PR (Table 16C, cetuximab (anti-EGFR) conjugate, average loading DAR 9.2, read-out: EC50 in M6PR binding assay) stood at 0.3 nM.
For the compound `O=C(CCOCCOCCOCCOCCn1cc(CCCCNC(=S)Nc2ccc(O[C@H]3O[C@H](CCS(=O)(=O)O)[C@@H](O)[C@H](O)[C@@H]3O)cc2)nn1)Oc1c(F)c(F)c(F)c(F)c1F` [556 (1-104)], the “relative cellular uptake activity of IgE-Alexa488, omalizumab conjugates of Table 15A” value (“relative cellular uptake activity … of Table 15A” for short) in the experiment on Jurkat cells is given as “low activity”.
Regarding `O=C(CCOCCOCCOCCN(CCOCCOCCOCCn1cc(CCCCNC(=S)Nc2ccc(O[C@H]3O[C@H](CCP(=O)(O)O)[C@@H](O)[C@H](O)[C@@H]3O)cc2)nn1)CCOCCOCCOCCn1cc(CCCCNC(=S)Nc2ccc(O[C@H]3O[C@H](CCP(=O)(O)O)[C@@H](O)[C@H](O)[C@@H]3O)cc2)nn1)Oc1c(F)c(F)c(F)c(F)c1F` [704 (I-40)], the EC50 amounted to 0.66 nM on CI-M6PR (setting [2]) and 0.2 nM on CI-M6PR (Table 16D, conjugate, m average loading DAR 7, read-out: EC50 in M6PR binding assay for conjugates of compounds of varying multivalency).
`O=C(CCCn1cc(CCCCNC(=S)Nc2ccc(O[C@H]3O[C@H](CCP(=O)(O)O)[C@@H](O)[C@H](O)[C@@H]3O)cc2)nn1)N[C@@H](CCCCn1cc(CCCCNC(=S)Nc2ccc(O[C@H]3O[C@H](CCP(=O)(O)O)[C@@H](O)[C@H](O)[C@@H]3O)cc2)nn1)C(=O)N[C@@H](CCCCn1cc(CCCCNC(=S)Nc2ccc(O[C@H]3O[C@H](CCP(=O)(O)O)[C@@H](O)[C@H](O)[C@@H]3O)cc2)nn1)C(=O)N[C@@H](CCCCn1cc(CCCCNC(=S)Nc2ccc(O[C@H]3O[C@H](CCP(=O)(O)O)[C@@H](O)[C@H](O)[C@@H]3O)cc2)nn1)C(=O)NCCOCCOCCOCCOCCC(=O)Oc1c(F)c(F)c(F)c(F)c1F` [763 (I-52)]: the EC50 on CI-M6PR (setting [2]) came to 0.3 nM.
`C#CCCCCNC(=O)Nc1ccc(O[C@H]2O[C@H](CCP(=O)(O)O)[C@@H](O)[C@H](O)[C@@H]2O)cc1` [Compound 38C] showed a half-maximal inhibitory concentration (IC50) in experiment [1] of 100 to 500 nM.
Consider `O=C(NCCCCc1cn(CCOCCOCCOCCOCCC(=O)Oc2c(F)c(F)c(F)c(F)c2F)nn1)Nc1ccc(S[C@H]2O[C@H](CCP(=O)(O)O)[C@@H](O)[C@H](O)[C@@H]2O)cc1` [Compound 552], for which the “relative cellular uptake activity of IgE-Alexa488, omalizumab conjugates of Table 15B” value with Jurkat cells was “comparable activity to an 0-glycoside (520 (I-7) with m=8); also recorded: more activity when at m=6 loading versus m=4 loading”. Also, the “relative cellular uptake activity of IgE-Alexa488, omalizumab conjugates of Table 19” value in the experiment with Jurkat cells (FIG. 23, entire dose response range) is recorded as “comparable by less activity that the conjugate of α-O-glycoside (529)”.
As for `O=C(NCCCCc1cn(CCOCCOCCOCCOCCC(=O)Oc2c(F)c(F)cc(F)c2F)nn1)Nc1ccc(O[C@H]2O[C@H](CCP(=O)(O)O)[C@@H](O)[C@H](O)[C@@H]2O)cc1` [Compound 558], the “relative cellular uptake activity … of Table 15A” value with Jurkat cells is “active in this assay, although less active in comparison to the corresponding analog containing a phosphonate hydrophilic head group (529 (I-38))”.
Take `O=C(CCOCCOCCOCCOCCn1cc(CCCCNC(=S)Nc2ccc(O[C@H]3O[C@H](CC(C(=O)O)C(=O)O)[C@@H](O)[C@H](O)[C@@H]3O)cc2)nn1)Oc1c(F)c(F)c(F)c(F)c1F` [Compound 559]: at CI-M6PR (Table 16E, conjugate, m average DAR 9, read-out: EC50 in M6PR binding assay for conjugates of monovalent compounds of varying linker length and loading), the 50% effective concentration (EC50) stood at 3.36 nM.
In the case of `CO[C@H]1O[C@H](COCCCCCc2cn(CCOCCOCCOCCOCCC(=O)Oc3c(F)c(F)c(F)c(F)c3F)nn2)[C@@H](O)[C@H](O)[C@@H]1O[C@H]1O[C@H](CCP(=O)(O)O)[C@@H](O)[C@H](O)[C@@H]1O` [Compound 659], the “relative cellular uptake activity of IgE-Alexa488, omalizumab conjugates of Table 15B” value in the experiment with Jurkat cells was “potent and comparable activity to conjugate of a conjugate of compound 520 (I-7)”.
The same measure, in the same setting: under `CO[C@H]1OC(c2cn(CCOCCOCCOCCOCCOCCOCCC(=O)Oc3c(F)c(F)c(F)c(F)c3F)nn2)[C@@H](O)[C@H](O)[C@@H]1O[C@H]1O[C@H](CCP(=O)(O)O)[C@@H](O)[C@H](O)[C@@H]1O` (stereo partly shown) [Compound 660] stands “potent and comparable activity to conjugate of a conjugate of compound 520 (I-7)”; under `O=C(CCOCCOCCOCCOCCOCCOCCOCCOCc1cn([C@H]2O[C@H](CCP(=O)(O)O)[C@@H](O)[C@H](O)[C@@H]2O)nn1)ON1C(=O)CCC1=O` [Compound 664], “minimal activity”.
With `O=C(NCCCCc1cn(CCOCCOCCOCCOCCC(=O)Oc2c(F)c(F)c(F)c(F)c2F)nn1)Nc1ccc(O[C@H]2C[C@H](CCP(=O)(O)O)[C@@H](O)[C@H](O)[C@@H]2O)cc1` [Compound 665], in the experiment with Jurkat cells, the “relative cellular uptake activity … of Table 15A” value is “low activity”.
Still for that read-out and setting: in the case of `O=C(CCOCCOCCOCCN(CCOCCOCCOCCn1cc(CCO[C@H]2O[C@H](CCP(=O)(O)O)[C@@H](O)[C@H](O)[C@@H]2O)nn1)CCOCCOCCOCCn1cc(CCO[C@H]2O[C@H](CCP(=O)(O)O)[C@@H](O)[C@H](O)[C@@H]2O)nn1)Oc1c(F)c(F)c(F)c(F)c1F` [Compound 716] it was “inferior uptake to 520 (I-7) with m=8”.
`CC(=O)N[C@@H](CCCCn1cc(CCCCNC(=O)Nc2ccc(O[C@H]3O[C@H](CCP(=O)(O)O)[C@@H](O)[C@H](O)[C@@H]3O)cc2)nn1)C(=O)N[C@@H](CCCCn1cc(CCCCNC(=O)Nc2ccc(O[C@H]3O[C@H](CCP(=O)(O)O)[C@@H](O)[C@H](O)[C@@H]3O)cc2)nn1)C(=O)NCCOCCOCCOCCOCCC(=O)O` [Compound 769]: the IC50 in experiment [1] was 100 to 500 nM.
The compound `CC(=O)N[C@@H](CCCCn1cc(CCCCNC(=O)Nc2ccc(O[C@H]3O[C@H](CCP(=O)(O)O)[C@@H](O)[C@H](O)[C@@H]3O)cc2)nn1)C(=O)N[C@@H](CCCCn1cc(CCCCNC(=O)Nc2ccc(O[C@H]3O[C@H](CCP(=O)(O)O)[C@@H](O)[C@H](O)[C@@H]3O)cc2)nn1)C(=O)NCCOCCOCCOCCOCCC(=O)N[C@@H](CCCCn1cc(CCCCNC(=O)Nc2ccc(O[C@H]3O[C@H](CCP(=O)(O)O)[C@@H](O)[C@H](O)[C@@H]3O)cc2)nn1)C(=O)N[C@@H](CCCCn1cc(CCCCNC(=O)Nc2ccc(O[C@H]3O[C@H](CCP(=O)(O)O)[C@@H](O)[C@H](O)[C@@H]3O)cc2)nn1)C(=O)NCCOCCOCCOCCOCCC(=O)O` [Compound 770] registered a half-inhibitory concentration (IC50) in experiment [1] not above 50 nM.
For the compound `CC(=O)N[C@@H](CCCCn1cc(CCCCNC(=O)Nc2ccc(O[C@H]3O[C@H](CCP(=O)(O)O)[C@@H](O)[C@H](O)[C@@H]3O)cc2)nn1)C(=O)NCCOCCOCCOCCOCCC(=O)O` [Compound 771], the concentration for half-maximal inhibition (IC50) in experiment [1] was 100 to 500 nM.
Regarding `O=C(CCCn1cc(CCCCNC(=S)Nc2ccc(O[C@H]3O[C@H](CCP(=O)(O)O)[C@@H](O)[C@H](O)[C@@H]3O)cc2)nn1)N[C@@H](CCCCn1cc(CCCCNC(=S)Nc2ccc(O[C@H]3O[C@H](CCP(=O)(O)O)[C@@H](O)[C@H](O)[C@@H]3O)cc2)nn1)C(=O)N[C@@H](CCCCn1cc(CCCCNC(=S)Nc2ccc(O[C@H]3O[C@H](CCP(=O)(O)O)[C@@H](O)[C@H](O)[C@@H]3O)cc2)nn1)C(=O)N[C@@H](CCCCn1cc(CCCCNC(=S)Nc2ccc(O[C@H]3O[C@H](CCP(=O)(O)O)[C@@H](O)[C@H](O)[C@@H]3O)cc2)nn1)C(=O)NCCOCCOCCOCCOCCC(=O)Oc1c(F)c(F)c(F)c(F)c1F` [Compound I-52], the EC50 on CI-M6PR (Table 16B, antibody conjugate, average loading DAR 6, read-out: EC50 in M6PR binding assay) was 0.28 nM.
